Source: patent US4260617A, “17-Cyclopropylmethyl-14-hydroxy-3-methoxymorphinan-6-one and method of treating pain with it” (SISA, Incorporated, priority 1979, dated 1981)

Columns and labels:
[1] = in words, prior art; cited from earlier work
[2] = system: acetic acid induced writhing in mice; assay: Acetic acid mouse writhing test (analgesic effect); assay type: in vivo, male CD-1 mice; details: for ED50: Mus musculus, sc, subcutaneous, mice, acetic acid i.p. 15 minutes post drug, writhes in 20 minute interval; for ED50/AD50: ratio of mouse writhing ED50 to rat tail flick AD50
Protocol: The analgesic effects of test compounds were determined in mice by use of the acetic acid writhing test described by B. J. R. Whittle, Brit. J. Pharmacol., 22: 296 (1964). In this test at least three groups of five male CD-1 mice each were given subcutaneous doses of the test drug dissolved in either distilled water or distilled water acidified with HCl depending on the solubility of the compound. In all cases, 0.4 milliliter of a 0.75% V/V acetic acid in distilled water solution was administered intraperitoneally 15 minutes post drug. The number of writhes in a 20 minute interval were determined and compared with the number of writhes in control groups which had received only acetic acid.
Percent inhibition of writhing was calculated as: [formula]
The ED50 dose, i.e., the dose required to reduce the number of writhes by 50%, was determined graphically from a plot of % inhibition as a probit versus log dose. Confidence limits of 95% were calculated on the basis of those results falling in the range 16-84% inhibition. See Litchfield, J. T. and Wilcoxon, F., J. Pharmacol. Exp. Ther., 96, 99-113, (1949).

[3] = system: morphine effect in rat tail flick; assay: Narcotic antagonist activity (modified rat tail flick test, antagonism of morphine); assay type: in vivo, male albino Wistar rats; details: for ED50: Rattus norvegicus, ip, 20 min, test drug intraperitoneally, rats, ED80 dose of morphine s.c. ten minutes later, retested 20 minutes after morphine, read-out: AD50 (the source's name)
Protocol: The narcotic anatagonist effects of test compounds were determined by a modification of the rat tail flick procedure of Harris and Pierson (J. Pharmacol. Exp. Ther. 143: 141 [1964]).
Male albino Wistar rats (100-120 g) were used for this study. A rat's tail is so placed so as to cover a photocell. Heat is applied by a lamp in a reflector with a timer being connected to the lamp and photocell so that the timer goes on when the light is turned on and is turned off when the photocell is uncovered. A rheostat, incorporated into a heating lamp, is used to adjust the intensity of the light fallng on the tail of the rat such that the rat's control reaction time is from two to four seconds. Animals with a control reaction time outside this range are rejected. The rheostat adjustment is made only if a significant proportion (more than 1 out of every 10 rats) of the reaction times are outside the range of 1.8 to 5.8 seconds. Groups of five rats were used each time, and two control times were determined at least 30 minutes apart. The test drug was given intraperitoneally and this was followed ten minutes later by an ED80 dose of morphine subcutaneously. The animals were retested at 20 minutes after the morphine injection. Control animals were given morphine only.
The data were calculated as follows: [formula]
The data were plotted on log-probit paper and AD50 values, i.e., the dose required to inhibit the morphine effect by 50% within 95% confidence limits, were determined by the method of Litchfield and Wilcoxon.

In the case of `O=C1CCC2(O)C3Cc4ccc(O)cc4C2(CCN3CC2CC2)C1` (stereo not shown), the duration of action [1] is given as “very long acting” and the “potency relative to A, cyclazocine or naloxone” value [1] is given as “more potent than A (above), cyclazocine or naloxone”.

In the case of `Cl.O=C1CC[C@@]2(O)[C@H]3Cc4ccc(O)cc4[C@@]2(CCN3CC2CC2)C1` [179-A-20, 17-cyclopropylmethyl-3,14-dihydroxymorphinan-6-one hydrochloride], the ED50 [2] is reported as 2.2 mg/kg, the ED50/AD50 [2] is reported as 26.83 and the “more potent in terms of narcotic antagonist activity, by a factor” value ([3]; 179-A-20 versus 179-A-19) is reported as “about 6”. For the same molecule, the ED50 [3] was 0.082 mg/kg.

For `COc1ccc2c(c1)[C@]13CCN(CC4CC4)[C@H](C2)[C@]1(O)CCC(=O)C3.Cl` [179-A-19, 17-cyclopropylmethyl-14-hydroxy-3-methoxymorphinan-6-one hydrochloride], the “more potent as an analgesic, by a factor” value ([2]; 179-A-19 versus 179-A-20) was “greater than 7”, the ED50 [2] was 0.3 mg/kg and the ED50/AD50 [2] was 0.6. For the same molecule, the ED50 [3] was 0.5 mg/kg.

In the case of `C[C@H]1[C@H]2Cc3ccc(O)cc3[C@]1(C)CCN2CC1CC1` [cyclazocine], the “analgesic / narcotic antagonist activity” value [1] is given as “mixed analgesic/narcotic antagonist activity”.

For `Oc1ccc2c(c1)C13CCCCC1(O)C(C2)N(CC1CCC1)CC3` (stereo not shown) [B], the “analgesic / narcotic antagonist activity” value [1] is listed as “both analgesic and narcotic antagonist activity”.

In the case of `Oc1ccc2c(c1)C13CCCCC1(O)C(C2)N(CC1CC1)CC3` (stereo not shown) [A], the “analgesic / narcotic antagonist activity” value [1] is listed as “essentially a narcotic antagonist”.
